Test results from PubChem BioAssay (NCI).
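Grown in 96-well plates, cells were treated for 48 hours with each compound at five concentrations. Insufficient inhibition: endpoint recorded as highest concentration tested. TGI: total growth inhibition.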

Experiments:
Test in all cases: NCI-60 cell line screen, 48 h
[1] = tested on: SW-620 colon
[2] = tested on: IGROV1 ovarian
[3] = tested on: CAKI-1 renal
[4] = tested on: OVCAR-3 ovarian
[5] = tested on: OVCAR-8 ovarian
[6] = tested on: PC-3 prostate
[7] = tested on: RXF 393 renal
[8] = tested on: UO-31 renal
[9] = tested on: NCI-H226 lung
[10] = tested on: HCC-2998 colon

| Structure (SMILES) | TGI [1] [µM] | TGI [2] [µM] | TGI [3] [µM] | TGI [4] [µM] | TGI [5] [µM] | TGI [6] [µM] | TGI [7] [µM] | TGI [8] [µM] | TGI [9] [µM] | TGI [10] [µM] |
| --- | --- | --- | --- | --- | --- | --- | --- | --- | --- | --- |
| CO[C@@H](c1ccccc1)[C@H](O)[C@@](O)(c1ccccc1)P(=O)(OC)OC | > 100 | > 100 | > 100 | > 100 | > 100 | > 100 | > 100 | > 100 | > 100 | – |
| COC(=O)C1CCC(=S)N1C(C)=O (stereo not given) | > 100 | > 100 | > 100 | > 100 | > 100 | > 100 | > 100 | > 100 | – | > 100 |
| O=C(Nc1nc2ccc([N+](=O)[O-])cc2s1)c1cc([N+](=O)[O-])ccc1Cl | 5.59 | – | 24.3 | 9.64 | 9.57 | – | 15.5 | – | 7.24 | – |
| CCOC(=O)N/N=C(/N)Cc1ccc(Cl)cc1 | > 100 | > 100 | – | > 100 | > 100 | > 100 | > 100 | > 100 | – | > 100 |
| Cc1ccc(C)c(C(=O)CC2OC(O)C(Cl)C2Cl)c1 (stereo not given) | 33.5 | > 100 | 84.4 | > 100 | 33.6 | – | 86 | > 100 | > 100 | > 100 |
| Cc1cc(NS(=O)(=O)c2ccc(NC(NC(=O)OC(C)C)(C(F)(F)F)C(F)(F)F)cc2)nc(C)n1 | > 100 | > 100 | > 100 | > 100 | > 100 | > 100 | > 100 | – | > 100 | > 100 |
| N#Cc1c(N)n(-c2nc3ccccc3s2)c(=O)c2cc([N+](=O)[O-])ccc12 | > 100 | – | 58.5 | 51.9 | 43.9 | > 52.1 | 41.9 | > 79.2 | 52.6 | 41.2 |
| CNc1nc(OC)c2c(n1)[n+](C)cn2C | > 100 | > 100 | > 100 | > 100 | > 100 | > 100 | > 100 | > 100 | > 100 | – |
| Nc1cc(O)c2cc(N=Nc3ccc(N=Nc4ccc(N=Nc5ccc6cc(S(=O)(=O)O)cc(S(=O)(=O)O)c6c5)c5ccccc45)c4cc(S(=O)(=O)O)ccc34)c(S(=O)(=O)O)cc2c1 | > 100 | > 100 | – | > 100 | > 100 | – | > 100 | > 100 | > 93.3 | > 100 |
| CCN(CC)CCCNc1nnc(C)c2[nH]c3ccccc3c12 | > 100 | 44.3 | > 100 | 37.7 | 42.3 | 45.2 | 38.8 | > 100 | – | 22.2 |
| CCCCCCCCCCCCCCCC(=O)OCC(COP(=O)(O)OCCNC(=O)CCSSc1ccccn1)OC(=O)CCCCCCCCCCCCCCC (stereo not given) | > 100 | > 100 | > 100 | > 100 | > 100 | > 100 | > 100 | > 100 | > 100 | – |
| COc1cc(O)c2c(=O)c(O)c(-c3ccc(O)c(O)c3)oc2c1 | 53.7 | > 100 | 15.6 | 21.8 | 75.9 | > 100 | – | 42.1 | – | 34.1 |
| CC(C)[C@H](NC(=O)OCc1ccccc1)C(=O)N[C@H](/C=C/C(=O)OC(C)(C)C)CO | > 100 | > 100 | > 100 | > 100 | > 100 | > 100 | > 100 | – | > 100 | > 100 |
| CC(C)=C[C@@H]1C[C@H](C)[C@H]2CC[C@H](C)[C@H]3C(=O)C(O)=C(C)C(=O)[C@]123 | > 100 | > 100 | > 100 | > 100 | > 100 | > 100 | – | > 100 | > 100 | > 100 |
| O=CC12CCCN1CCC2 | > 100 | > 100 | > 100 | > 100 | – | > 100 | > 100 | > 100 | > 100 | > 100 |
| C(/Cc1ccc2c(c1)OCO2)=N\NC1=NCCCCN1 | > 100 | > 100 | – | > 100 | > 100 | > 100 | > 100 | > 100 | > 100 | > 100 |
| CCCCCNC(=O)OC1CCn2c1nc1c2C(=O)C(C)=C(N2CC2)C1=O (stereo not given) | – | 3.43 | 2.9 | 7.05 | 5.31 | 2.39 | 1.82 | 3.87 | 4.26 | 1.37 |
| CN(C)c1ccc(/C=C2\CCCCCC2=O)cc1 | > 100 | > 100 | > 100 | > 100 | > 100 | > 100 | > 100 | > 100 | – | > 100 |
| COc1ccc(NC(=S)Nc2cccc(C)n2)cc1 | > 100 | > 100 | > 100 | – | > 100 | > 100 | > 100 | > 100 | > 100 | > 100 |
| CCOC(=O)C1(NC(=O)OC(C)(C)C)CCc2[nH]oc(=O)c2C1 (stereo not given) | > 100 | > 100 | > 100 | > 100 | > 100 | > 100 | – | > 100 | > 100 | > 100 |
| COc1ccc(N=C(SSC(=Nc2ccc(OC)cc2)c2ccc([N+](=O)[O-])o2)c2ccc([N+](=O)[O-])o2)cc1 | – | 4.2 | 5.87 | 2.6 | 7.71 | 2.94 | 2.92 | 3.01 | 37.3 | 3.26 |
| Nn1c(=S)[nH]nc(/C=C/c2c(O)ccc3ccccc23)c1=O | > 100 | 5.56 | 36.1 | 22.1 | 4.81 | > 100 | – | 34.8 | – | 54.5 |
| O=C1CSC(c2cccc(Oc3ccccc3)c2)N1c1cc(Cl)ccc1Cl (stereo not given) | 70.5 | – | 48.8 | 51.2 | 62.5 | 52.5 | 40.3 | 43.3 | 46.7 | 28.6 |
